Reference: patent US20120316169A1, “2-ARYL-PROPIONAMIDE DERIVATIVES USEFUL AS BRADYKININ RECEPTOR ANTAGONISTS AND PHARMACEUTICAL COMPOSITIONS CONTAINING THEM” (DOMPÉ S.P.A., priority 2009, published 2012)

Target: T1, BKB1 receptors (Homo sapiens, UniProt P46663)
T1 construct: Human (IMR-90) lung fibroblast cells expressing native B1 receptors; endogenous in cells; host or cells: IMR-90 human lung fibroblasts, interleukin-treated to up-regulate BKB1 receptors
T1 sequence (P46663 1-353): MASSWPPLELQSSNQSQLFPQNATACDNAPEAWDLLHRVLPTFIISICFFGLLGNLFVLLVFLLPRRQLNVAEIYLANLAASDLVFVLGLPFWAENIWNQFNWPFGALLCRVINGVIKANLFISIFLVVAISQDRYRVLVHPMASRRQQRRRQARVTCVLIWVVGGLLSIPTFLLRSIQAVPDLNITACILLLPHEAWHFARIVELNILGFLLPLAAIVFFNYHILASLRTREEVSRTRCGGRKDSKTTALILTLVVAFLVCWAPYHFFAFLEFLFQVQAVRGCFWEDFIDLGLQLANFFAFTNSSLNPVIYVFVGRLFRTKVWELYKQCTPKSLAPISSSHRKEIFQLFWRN
Assay: Calcium mobilization assay (FLIPR), B1 receptors in IMR-90 cells
Type: cell-based
Details: Human IMR-90 lung fibroblast cells, up-regulated BKB1 receptors, agonist desArg10-kallidin (DAKD) 2 to 8 nM, calcium-dependent fluorescence
Protocol: Calcium mobilization assay (FLIPR)—Human (IMR-90) lung fibroblast cells expressing native B1 receptors were harvested by trypsinization and seeded into black wall/clear bottom 96-well plates (Costar 3904; Corning Life Sciences, Acton, Mass.) at approximately 13,000 cells/well. After 1 day incubation, cells were treated with […] (0.35 ng/ml) in 10% FBS/MEM for 2 h to up-regulate BKB1 receptors. Induced cells were loaded with fluorescent calcium indicator by incubation with 2.3 μM Fluo-4/acetoxymethyl ester (Invitrogen) at 37° C. for 1.5 h in the presence of an anion transport inhibitor (2.5 mM probenecid in 1% FBS/MEM). Extracellular dye was removed by washing with assay buffer (2.5 mM probenecid, 0.1% BSA in 20 mM HEPES/HBSS without bicarbonate or phenol red, pH 7.5) and cell plates were kept in the dark until used. Test compounds were assayed at eight concentrations in triplicate. Addition of test compounds to the cell plate and incubation for 5 min at 35° C., followed by the addition of 2 to 8 nM final BK1 agonist desArg^10-kallidin (DAKD, 3×EC50) was carried out in the fluorimetric imaging plate reader (FLIPR; Molecular Devices) while continuously monitoring calcium-dependent fluorescence.

| Compound | IC50 [µM] |
| --- | --- |
| CC(C(=O)Nc1ccncc1)c1cccc(Nc2ccc(F)cc2)c1 (stereo not drawn) [Compound 74, 2-{3-[(4-fluorophenyl)amino]phenyl}-N-(pyridin-4-yl)propanamide] | 1 |
| CC(C(=O)Nc1cnccn1)c1ccc(Oc2ccc(F)cc2)cc1 (stereo not drawn) [Compound 75, 2-[4-(4-fluorophenoxy)phenyl]-N-(pyrazin-2-yl)propanamide] | 1.2 |
| CC(C(N)=O)c1cccc(Nc2ccc3c(c2)OC(F)(F)O3)c1 (stereo not drawn) [Compound 76, 2-{3-[(2,2-difluoro-1,3-benzodioxol-5-yl)amino]phenyl}propanamide] | 8.91 |
| CC(C(=O)Nc1cnccn1)c1ccc(N2CCCCC2)cc1 (stereo not drawn) [Compound 77, 2-[4-(piperidin-1-yl)phenyl]-N-(pyrazin-2-yl)propanamide] | 4.37 |
| CC(C(=O)Nn1cnnc1)c1ccc(NS(=O)(=O)c2ccc(Cl)cc2)cc1 (stereo not drawn) [Compound 78, 2-(4-{[(4-chlorophenyl)sulfonyl]amino}phenyl)-N-(4H-1,2,4-triazol-4-yl) propanamide] | 0.891 |
| CC(C(N)=O)c1ccc(Nc2ccc3c(c2)OC(F)(F)O3)cc1 (stereo not drawn) [Compound 79, 2-{4-[(2,2-difluoro-1,3-benzodioxol-5-yl)amino]phenyl}propanamide] | 1.35 |
| CC(C(=O)Nc1ccncc1)c1ccc(Nc2cnc3ccccc3c2)cc1 (stereo not drawn) [Compound 80, N-(pyridin-4-yl)-2-[4-(quinolin-3-ylamino)phenyl]propanamide] | 5.25 |
| CC(C(=O)Nc1cc(Cl)cc(Cl)c1S(N)(=O)=O)c1ccc(OS(=O)(=O)c2ccccc2Cl)cc1 (stereo not drawn) [Compound 81, 4-{1-[(3,5-dichloro-2-sulfamoylphenyl)amino]-1-oxopropan-2-yl}phenyl 2-chlorobenzenesulfonate] | 8.71 |
| CC(C(=O)Nc1ccncc1)c1ccc(Nc2ccccc2-n2cccc2)cc1 (stereo not drawn) [Compound 82] | 5.75 |
